Source: ChEMBL document CHEMBL3045318, “Synthesis and Antimicrobial Evaluation of Some t(3)-Alkyl and t(3),t(5)-Dimethyl-r(2),c(6)-DI-2-Furfurylpiperidin-4-one and its Derivatives” (2005)
In brackets after ≈: the same amount, converted by molar mass. Activity calls are given as the source filed them. The calls are words filed in the database; no cut-off is given here.

Key:
Aspergillus flavus [1] = assay: Antimicrobial activity against Aspergillus flavus after 72 to 96 hr by serial dilution method; format: functional
Enterococcus faecalis [2] = assay: Antimicrobial activity against Enterococcus faecalis after 24 hr by serial dilution method; format: functional
Pseudomonas aeruginosa [3] = assay: Antimicrobial activity against Pseudomonas aeruginosa at 100 ug/ml after 24 hr by serial dilution method; format: functional, organism-based
Cryptococcus neoformans [4] = assay: Antimicrobial activity against Cryptococcus neoformans at 200 ug/ml after 72 to 96 hr by serial dilution method; format: functional, organism-based
Cryptococcus neoformans [5] = assay: Antimicrobial activity against Cryptococcus neoformans at 100 ug/ml after 72 to 96 hr by serial dilution method; format: functional, organism-based
Bacillus subtilis = assay: Antimicrobial activity against Bacillus subtilis after 24 hr by serial dilution method; format: functional
Escherichia coli = assay: Antimicrobial activity against Escherichia coli after 24 hr by serial dilution method; format: functional
Candida [6] = assay: Antimicrobial activity against Candida-51 after 72 to 96 hr by serial dilution method; format: functional
Aspergillus niger [7] = assay: Antimicrobial activity against Aspergillus niger after 72 to 96 hr by serial dilution method; format: functional
Klebsiella pneumoniae [8] = assay: Antimicrobial activity against Klebsiella pneumoniae after 24 hr by serial dilution method; format: functional
Candida [9] = assay: Antimicrobial activity against Candida 6 after 72 to 96 hr by serial dilution method; format: functional
Cryptococcus neoformans [10] = assay: Antimicrobial activity against Cryptococcus neoformans after 72 to 96 hr by serial dilution method; format: functional
Aspergillus flavus [11] = assay: Antimicrobial activity against Aspergillus flavus at 100 ug/ml after 72 to 96 hr by serial dilution method; format: functional, organism-based
Enterococcus faecalis [12] = assay: Antimicrobial activity against Enterococcus faecalis at 100 ug/ml after 24 hr by serial dilution method; format: functional, organism-based
Klebsiella pneumoniae [13] = assay: Antimicrobial activity against Klebsiella pneumoniae at 100 ug/ml after 24 hr by serial dilution method; format: functional, organism-based
Aspergillus niger [14] = assay: Antimicrobial activity against Aspergillus niger at 200 ug/ml after 72 to 96 hr by serial dilution method; format: functional, organism-based
Aspergillus flavus [15] = assay: Antimicrobial activity against Aspergillus flavus at 200 ug/ml after 72 to 96 hr by serial dilution method; format: functional, organism-based
Aspergillus niger [16] = assay: Antimicrobial activity against Aspergillus niger at 100 ug/ml after 72 to 96 hr by serial dilution method; format: functional, organism-based
Pseudomonas aeruginosa [17] = assay: Antimicrobial activity against Pseudomonas aeruginosa after 24 hr by serial dilution method; format: functional

| MIC (Aspergillus niger [7]) [mg/L] | MIC (Klebsiella pneumoniae [8]) [mg/L] | MIC (Cryptococcus neoformans [10]) [mg/L] | MIC (Pseudomonas aeruginosa [17]) [mg/L] | Compound | MIC (Aspergillus flavus [1]) [mg/L] | MIC (Enterococcus faecalis [2]) [mg/L] | inhibition (Pseudomonas aeruginosa [3]) | inhibition (Cryptococcus neoformans [4]) | inhibition (Cryptococcus neoformans [5]) | MIC (Bacillus subtilis) [mg/L] | MIC (Escherichia coli) [mg/L] | MIC (Candida [6]) [mg/L] | MIC (Candida [9]) [mg/L] | inhibition (Aspergillus flavus [11]) | inhibition (Enterococcus faecalis [12]) | inhibition (Klebsiella pneumoniae [13]) | inhibition (Aspergillus niger [14]) | inhibition (Aspergillus flavus [15]) | inhibition (Aspergillus niger [16]) |
| --- | --- | --- | --- | --- | --- | --- | --- | --- | --- | --- | --- | --- | --- | --- | --- | --- | --- | --- | --- |
| – | – | – | – | CC1C(=O)CC(c2ccco2)NC1c1ccco1 (stereo unspecified) | – | – | inactive | inactive | inactive | 50 (≈ 204 µM) | 50 (≈ 204 µM) | 100 (≈ 408 µM) | 100 (≈ 408 µM) | inactive | inactive | inactive | inactive | inactive | inactive |
| – | – | – | – | CCC1C(=O)CC(c2ccco2)NC1c1ccco1 (stereo unspecified) | 100 (≈ 386 µM) | 100 (≈ 386 µM) | inactive | inactive | inactive | 25 (≈ 96.4 µM) | 25 (≈ 96.4 µM) | 100 (≈ 386 µM) | 50 (≈ 193 µM) | – | – | inactive | inactive | – | inactive |
| 25 (≈ 91.1 µM) | 6.25 (≈ 22.8 µM) | 6.25 (≈ 22.8 µM) | 50 (≈ 182 µM) | CC1C(=NO)C(C)C(c2ccco2)NC1c1ccco1 (stereo unspecified) | 12.5 (≈ 45.6 µM) | 25 (≈ 91.1 µM) | – | – | – | 25 (≈ 91.1 µM) | 25 (≈ 91.1 µM) | 12.5 (≈ 45.6 µM) | 12.5 (≈ 45.6 µM) | – | – | – | – | – | – |
| 100 (≈ 384 µM) | 12.5 (≈ 48 µM) | 25 (≈ 96 µM) | 25 (≈ 96 µM) | CC1/C(=N\O)CC(c2ccco2)NC1c1ccco1 (stereo unspecified) | 50 (≈ 192 µM) | 25 (≈ 96 µM) | – | – | – | 25 (≈ 96 µM) | 12.5 (≈ 48 µM) | 12.5 (≈ 48 µM) | 50 (≈ 192 µM) | – | – | – | – | – | – |
| 50 (≈ 182 µM) | 6.25 (≈ 22.8 µM) | 12.5 (≈ 45.6 µM) | 12.5 (≈ 45.6 µM) | CCC1/C(=N\O)CC(c2ccco2)NC1c1ccco1 (stereo unspecified) | 25 (≈ 91.1 µM) | 25 (≈ 91.1 µM) | – | – | – | 25 (≈ 91.1 µM) | 25 (≈ 91.1 µM) | 12.5 (≈ 45.6 µM) | 25 (≈ 91.1 µM) | – | – | – | – | – | – |

| Compound | MIC (Aspergillus niger [7]) [mg/L] | MIC (Klebsiella pneumoniae [8]) [mg/L] | MIC (Cryptococcus neoformans [10]) [mg/L] | MIC (Pseudomonas aeruginosa [17]) [mg/L] | MIC (Aspergillus flavus [1]) [mg/L] | MIC (Enterococcus faecalis [2]) [mg/L] | inhibition (Pseudomonas aeruginosa [3]) | inhibition (Cryptococcus neoformans [4]) | inhibition (Cryptococcus neoformans [5]) | MIC (Bacillus subtilis) [mg/L] | MIC (Escherichia coli) [mg/L] | MIC (Candida [6]) [mg/L] | MIC (Candida [9]) [mg/L] | inhibition (Aspergillus flavus [11]) | inhibition (Enterococcus faecalis [12]) | inhibition (Klebsiella pneumoniae [13]) | inhibition (Aspergillus niger [14]) | inhibition (Aspergillus flavus [15]) | inhibition (Aspergillus niger [16]) |
| --- | --- | --- | --- | --- | --- | --- | --- | --- | --- | --- | --- | --- | --- | --- | --- | --- | --- | --- | --- |
| CC1C(=O)C(C)C(c2ccco2)NC1c1ccco1 (stereo unspecified) | 100 (≈ 386 µM) | 100 (≈ 386 µM) | – | – | 50 (≈ 193 µM) | 50 (≈ 193 µM) | inactive | inactive | inactive | 12.5 (≈ 48.2 µM) | 12.5 (≈ 48.2 µM) | 50 (≈ 193 µM) | 50 (≈ 193 µM) | – | – | – | – | – | – |
| C[C@@H]1[C@H](O)[C@@H](C)/C=C/C=C/C=C/C=C/C=C/C=C/C=C/[C@H](O[C@@H]2O[C@H](C)[C@@H](O)[C@H](N)[C@@H]2O)C[C@@H]2O[C@](O)(C[C@@H](O)C[C@@H](O)[C@H](O)CC[C@@H](O)C[C@@H](O)CC(=O)O[C@H]1C)C[C@H](O)[C@H]2C(=O)O [AMPHOTERICIN B] | 50 (≈ 54.1 µM) | – | 25 (≈ 27.1 µM) | – | 50 (≈ 54.1 µM) | – | – | – | – | – | – | 25 (≈ 27.1 µM) | 25 (≈ 27.1 µM) | – | – | – | – | – | – |
| CN[C@@H]1[C@H](O[C@H]2[C@H](O[C@H]3[C@H](O)[C@@H](O)[C@H](N=C(N)N)[C@@H](O)[C@@H]3N=C(N)N)O[C@@H](C)[C@]2(O)C=O)O[C@@H](CO)[C@H](O)[C@H]1O [STREPTOMYCIN] | – | 25 (≈ 43 µM) | – | 25 (≈ 43 µM) | – | 50 (≈ 86 µM) | – | – | – | 12.5 (≈ 21.5 µM) | 12.5 (≈ 21.5 µM) | – | – | – | – | – | – | – | – |
